Measurements published in publication PMC3641313 (Korean Journal of Pediatrics, 2013).
Entries after “also recorded” stand apart in the source; their conditions may differ. Read-outs that look alike come from different tables or passages of the source.

Tested on: viral NA of influenza A/H1N1
Assay type: biochemical, influenza A/H1N1 virus

Row | Compound | sensitivity or resistance of isolates by IC50 criteria (A/H1N1, first study period, both groups, […]) | sensitivity or resistance of isolates by IC50 criteria (A/H1N1, second study period, both groups, […]) | resistance of influenza A/H1N1 isolates | sensitivity or resistance of isolates by IC50 criteria
1 | CCOC(=O)C1=C[C@@H](OC(CC)CC)[C@H](NC(C)=O)[C@@H](N)C1 [Oseltamivir] | sensitivity | high-level drug resistance | – | –
2 | CC(=O)N[C@H]1[C@H]([C@H](O)[C@H](O)CO)OC(C(=O)O)=C[C@@H]1N=C(N)N [Zanamivir] | – | – | no zanamivir resistance | sensitivity; also recorded: sensitive
